# Results published in patent US8435928B2, “Herbicidal composition” (Ishihara Sangyo Kaisha, Ltd., priority 2007, dated 2013).
# Experiments:
# crabgrass [1] = assay: Test Example 9: foliar application of compound No. 2-39 wettable powder with surfactant, crabgrass; format: in vivo, Digitaria sanguinalis L.; conditions: 15 g a.i./ha wettable powder, 21st day
# Description: (§1) On the 21st day after the application, the state of growth of the plants was visually observed (growth inhibition rate (%)=0 (the same as the untreated plot) to 100 (complete kill)), and the results as shown in Tables b1 and b2 were obtained.
# (§2) Upland field soil was put into a 1/1,000,000 ha pot, and seeds of crabgrass were sown and grown in a greenhouse. When crabgrass reached 4.0 to 4.5 leaf stage, a prescribed amount (15 g a.i./ha) of a wettable powder comprising compound No. 2-39 as an active ingredient, prepared in accordance with the above Example 1, was diluted with water corresponding to 300 L/ha (containing 0.05 vol % of a surfactant containing the POA alkyl ether phosphate), followed by foliar application. Further, for comparison, foliar application was carried out in the same manner by using SILWETT L-77 at a concentration of 0.1 vol % instead of the above surfactant.
# On the 21st day after the application, the state of growth of the plant was evaluated in the same manner as in Test Example 1, and the results as shown in Table b13 were obtained.
# [2] = system: crabgrass (Digitaria sanguinalis L.); assay: Test Example 1: foliar application of compound No. 1 wettable powder with surfactant, visual growth inhibition, crabgrass; format: in vivo; conditions: 15 g a.i./ha wettable powder, 21st day
# Description: (§3) Upland field soil was put into a 1/1,000,000 ha pot, and seeds of crabgrass (Digitaria sanguinalis L.) and velvetleaf (Abutilon theophrasti L.) were respectively sown and grown in a greenhouse. When crabgrass reached 4.2 to 5.0 leaf stage and velvetleaf reached 3.5 to 4.3 leaf stage, a prescribed amount (15 g a.i./ha) of a wettable powder comprising compound No. 1 as an active ingredient, prepared in accordance with the above Example 1, was diluted with water corresponding to 300 L/ha (containing 0.05 vol % of a surfactant containing the POA alkyl ether phosphate), followed by foliar application (the present invention). Further, for comparison, foliar application was carried out in the same manner by using an alkylaryl polyglycol ether surfactant (tradename: CITOWETT) at a concentration of 0.1 vol %, instead of the above surfactant (comparison).
# as §1
# [3] = system: velvetleaf (Abutilon theophrasti L.); assay: Test Example 1: foliar application of compound No. 1 wettable powder with surfactant, visual growth inhibition, velvetleaf; format: in vivo; conditions: 15 g a.i./ha wettable powder, 21st day
# Description: as §3, §1
# [4] = system: velvetleaf (Abutilon theophrasti L.); assay: Test Example 4: foliar application of compound No. 2-27 wettable powder with surfactant, velvetleaf; format: in vivo; conditions: 7 g a.i./ha wettable powder, 21st day
# Description: as §3, §1
# (§4) The results as shown in Tables b6 and b7 were obtained in the same manner as in the above Test Example 1 except that a prescribed amount (15 g a.i./ha or 7 g a.i./ha) of a wettable powder comprising compound No. 2-27 as an active ingredient, prepared in accordance with the above Example 4, was used.
# [5] = system: crabgrass (Digitaria sanguinalis L.); assay: Test Example 4: foliar application of compound No. 2-27 wettable powder with surfactant, crabgrass; format: in vivo; conditions: 15 g a.i./ha wettable powder, 21st day
# Description: as §3, §1, §4
# crabgrass [6] = assay: Test Example 11: foliar application of compound No. 4-3 wettable powder with surfactant, crabgrass; format: in vivo, Digitaria sanguinalis L.; conditions: 15 g a.i./ha wettable powder, 21st day
# Description: as §1
# as §2, with “5.0” for “4.5”, “4-3” for “2-39”, “L-77 (tradename)” for “L-77”
# On the 21st day after the application, the state of growth of the plant was evaluated in the same manner as in Test Example 1, and the results as shown in Table b16 were obtained.
# [7] = system: crabgrass (Digitaria sanguinalis L.); assay: Test Example 2: foliar application of compound No. 53 suspension concentrate with surfactant, crabgrass; format: in vivo; conditions: 15 g a.i./ha water-based suspension concentrate, 21st day
# Description: as §3, §1
# (§5) The results as shown in Tables b3 and b4 were obtained in the same manner as the above Test Example 1 except that a prescribed amount (15 g a.i./ha) of a water-based suspension concentrate comprising compound No. 53 as an active ingredient, prepared in accordance with the above Example 2, was used.
# [8] = system: velvetleaf (Abutilon theophrasti L.); assay: Test Example 2: foliar application of compound No. 53 suspension concentrate with surfactant, velvetleaf; format: in vivo; conditions: 15 g a.i./ha water-based suspension concentrate, 21st day
# Description: as §3, §1, §5
# crabgrass [9] = assay: Test Example 3: foliar application of compound No. 238 suspension concentrate with surfactant, crabgrass; format: in vivo, Digitaria sanguinalis L.; conditions: 30 g a.i./ha water-based suspension concentrate, 21st day
# Description: On the 21st day after the application, the state of growth of the plants was visually observed (growth inhibition rate (%)=0 (the same as the untreated plot) to 100 (complete kill)), and the results as shown in Tables b1 and b2 were obtained. Upland field soil was put into a 1/1,000,000 ha pot, and seeds of crabgrass were sown and grown in a greenhouse. When crabgrass reached 4.5 to 5.0 leaf stage, a prescribed amount (30 g a.i./ha) of a water-based suspension concentrate comprising compound No. 238 as an active ingredient, prepared in accordance with the above Example 6, was diluted with water corresponding to 300 L/ha (containing 0.05 vol % of a surfactant containing the POA alkyl ether phosphate), followed by foliar application. Further, for comparison, foliar application was carried out in the same manner by using CITOWETT (tradename) at a concentration of 0.3 vol %, instead of the above surfactant. On the 21st day after the application, the state of growth of the plant was evaluated in the same manner as in Test Example 1, and the results as shown in Table b5 were obtained.
# crabgrass [10] = assay: Test Example 6: foliar application of compound No. 238 suspension concentrate with surfactant and optional oil or emulsifying agent, crabgrass; format: in vivo, Digitaria sanguinalis L.; conditions: 7 g a.i./ha suspension concentrate, ADEKA COL PS-440E 0.03 vol %, 20th day
# Description: as §1
# Upland field soil was put into a 1/1,000,000 ha pot, and seeds of crabgrass were sown and grown in a greenhouse. When crabgrass reached 3.8 to 4.1 leaf stage, a prescribed amount (7 g a.i./ha) of a water-based suspension concentrate comprising compound No. 238 as an active ingredient, prepared in accordance with the above Example 3, was diluted with water corresponding to 300 L/ha (containing 0.03 vol % of a surfactant containing the POA alkyl ether phosphate and optionally having 0.03 vol % of a fatty acid ester, a hydrocarbon solvent or an emulsifying agent added), followed by foliar application. The fatty acid ester used here was AGNIQUE Me 18RD-F (tradename), the hydrocarbon solvent was Solvesso 150 (tradename) and the emulsifying agent was a mixture of a polyoxyethylene sorbitol tetraoleate, a polyoxyethylene castor oil and calcium dodecylbenzene sulfonate.
# On the 20th day after the application, the state of growth of the plant was evaluated in the same manner as in Test Example 1, and the results as shown in Table b9 were obtained.
# [11] = surfactant ADECA COL PS-440E 0.05 vol %, present invention
# [12] = surfactant NIKKOL DDP-8 0.05 vol %, present invention
# [13] = surfactant PHOSPHANOL RS-410 0.05 vol %, present invention
# [14] = surfactant SILWETT L-77 0.1 vol %, comparison
# [15] = surfactant CITOWETT 0.1 vol %, comparison
# [16] = surfactant PLYSURF A219B 0.05 vol %, present invention
# [17] = surfactant NIKKOL TDP-8 0.05 vol %, present invention
smiles,measurement,setting,value
CCOCc1c(S(C)(=O)=O)ccc(C(=O)c2cnn(C)c2O)c1C [2-39],Growth inhibition rate (%) of crabgrass,crabgrass [1]; [11],93%
same,Growth inhibition rate (%) of crabgrass,crabgrass [1]; [12],93%
same,Growth inhibition rate (%) of crabgrass,crabgrass [1]; [13],70%
same,Growth inhibition rate (%) of crabgrass,crabgrass [1]; [14],20%
CCSC(=O)Oc1c(C(=O)c2ccc(S(C)(=O)=O)c(C(=O)OC)c2C)cnn1C [Compound No. 1],Growth inhibition rate (%) of crabgrass,[2]; [11],70%
same,Growth inhibition rate (%) of crabgrass,[2]; [15],50%
same,Growth inhibition rate (%) of crabgrass,[2]; [12],73%
same,Growth inhibition rate (%) of crabgrass,[2]; [16],60%
same,Growth inhibition rate (%) of velvetleaf,[3]; [11],93%
same,Growth inhibition rate (%) of velvetleaf,[3]; [15],73%
same,Growth inhibition rate (%) of velvetleaf,[3]; [12],93%
same,Growth inhibition rate (%) of velvetleaf,[3]; [16],90%
COCCOc1c(S(C)(=O)=O)ccc(C(=O)c2cnn(C)c2O)c1C [Compound No. 2-27],Growth inhibition rate (%) of velvetleaf,[4]; [11],80%
same,Growth inhibition rate (%) of velvetleaf,[4]; [15],63%
same,Growth inhibition rate (%) of velvetleaf,[4]; [12],95%
same,Growth inhibition rate (%) of velvetleaf,[4]; [16],70%
same,Growth inhibition rate (%) of crabgrass,[5]; [11],90%
same,Growth inhibition rate (%) of crabgrass,[5]; [15],78%
same,Growth inhibition rate (%) of crabgrass,[5]; [12],90%
same,Growth inhibition rate (%) of crabgrass,[5]; [16],94%
CCOC(=O)OC(C)Oc1c(C(=O)c2ccc(S(C)(=O)=O)c(OCCOC)c2C)cnn1CC (centres unmarked) [Compound No. 4-3],Growth inhibition rate (%) of crabgrass,crabgrass [6]; [11],83%
same,Growth inhibition rate (%) of crabgrass,crabgrass [6]; [12],80%
same,Growth inhibition rate (%) of crabgrass,crabgrass [6]; [17],85%
same,Growth inhibition rate (%) of crabgrass,"crabgrass [6]; surfactant PHOSPHANOL ML-240 0.05 vol %, present invention",90%
same,Growth inhibition rate (%) of crabgrass,crabgrass [6]; [13],80%
same,Growth inhibition rate (%) of crabgrass,"crabgrass [6]; surfactant PHOSPHANOL RS-710 0.05 vol %, present invention",80%
same,Growth inhibition rate (%) of crabgrass,"crabgrass [6]; surfactant PHOSPHOLAN PS-236 0.05 vol %, present invention",80%
same,Growth inhibition rate (%) of crabgrass,crabgrass [6]; [16],98%
same,Growth inhibition rate (%) of crabgrass,crabgrass [6]; [14],55%
CCSC(=O)Oc1c(C(=O)c2ccc(S(C)(=O)=O)c(OCCOC)c2C)cnn1C [Compound No. 53],Growth inhibition rate (%) of crabgrass,[7]; [11],90%
same,Growth inhibition rate (%) of crabgrass,[7]; [15],50%
same,Growth inhibition rate (%) of crabgrass,[7]; [12],90%
same,Growth inhibition rate (%) of crabgrass,[7]; [16],78%
same,Growth inhibition rate (%) of velvetleaf,[8]; [11],93%
same,Growth inhibition rate (%) of velvetleaf,[8]; [15],78%
same,Growth inhibition rate (%) of velvetleaf,[8]; [12],98%
same,Growth inhibition rate (%) of velvetleaf,[8]; [16],90%
COCCOc1c(S(C)(=O)=O)ccc(C(=O)c2cnn(C)c2OC(=O)SC(C)(C)C)c1C [Compound No. 238],Growth inhibition rate (%) of crabgrass,"crabgrass [9]; surfactant ADEKA COL PS-440E 0.05 vol %, present invention",75%
same,Growth inhibition rate (%) of crabgrass,"crabgrass [9]; surfactant CITOWETT 0.3 vol %, comparison",50%
same,Growth inhibition rate (%) of crabgrass,crabgrass [9]; [12],90%
same,Growth inhibition rate (%) of crabgrass,crabgrass [9]; [17],90%
same,Growth inhibition rate (%) of crabgrass,"crabgrass [9]; surfactant PHOSPHANOL RS710 0.05 vol %, present invention",80%
same,Growth inhibition rate (%) of crabgrass,crabgrass [9]; [16],90%
same,Growth inhibition rate (%) of crabgrass,crabgrass [10]; fatty acid ester and emulsifying agent added,83%
same,Growth inhibition rate (%) of crabgrass,"crabgrass [10]; fatty acid ester, hydrocarbon solvent and emulsifying agent added",85%
same,Growth inhibition rate (%) of crabgrass,crabgrass [10]; hydrocarbon solvent and emulsifying agent added,83%
same,Growth inhibition rate (%) of crabgrass,"crabgrass [10]; no fatty acid ester, hydrocarbon solvent or emulsifying agent",73%
